The source of these data is patent publication US7045591B2, “Selective cyclic peptides with melanocortin-4 receptor (MC4-R) agonist activity” (Hoffmann-La Roche Inc., priority 2000, dated 2006).

Broadly, the EC50 is the midpoint of the concentration-response curve.

The assay deals with T1, MC-4 receptor (Homo sapiens, UniProt P32245).
T1 construct: expressed in transfected cells; host or cells: HEK 293 cells (G418 selected)
Briefly: Agonist assay: cAMP response in HEK 293 cells transfected with the MC-4 receptor (Biotrak-cAMP SPA). Type of assay: cell-based. Particulars: HEK 293 cells transfected with MC-4 receptor, cAMP increase; read-out: EC50 for MC4-R agonist activity. The procedure: Description: HEK 293 cells transfected with either the MC-4 receptor or MC-1 receptor were grown in 96 well plates. The cells were stimulated with either 100 nM NDP-αMSH or screening compounds. Cyclic AMP was extracted from the cells and concentrations were determined using a Biotrak-cAMP SPA assay. Agonists were identified as those compounds causing an increase in cAMP.
Cell Culture: HEK 293 cells transfected with either the MC-4 receptor or MC-1 receptor were cultured in 75 cm^2 flasks in D-MEM supplemented with 10% FCS and 500 μg/ml G418. Cells were trypsinized and split 1:3 into 96 well flat-bottom tissue culture treated plates. Cells were stimulated at confluence (day 2-4).
cAMP Response: Compounds serially diluted in 100% DMSO were further diluted 1:200 (2.5 μl compound dilution +500 μl media) in D-MEM containing 10% FBS and 0.1 mM IBMX. For unstimulated cells, 2.5 μl of DMSO was added to 500 μl of media. For NDP-αMSH stimulated cells, 2.5 μl of 20μM NDP-αMSH in 100% DMSO was added to 500μl of media (final conc. 100 nM). Final concentration of DMSO in all wells was 0.5%.
Note: Each sample was run in duplicate on separate plates. […]
cAMP Assay: The extracted samples and all reagents included in the kit were brought to room temperature. […] [125I ]cAMP binding to the SPA beads was determined by counting each plate for 2 minutes on a Packard TopCount™. […]

Bridge positions count the residues as written; N and C are the ends. Square brackets hold non-standard residues; d marks the D form. Peptide text beside a SMILES is read from it. * marks the point of attachment. ξ: configuration not given here. Ac6c(4-Ph-cis-to-N) = N[C@]1(C(=O)O)CC[C@H](c2ccccc2)CC1; Pentanoyl = CCCCC(=O)*; ξK = NCCCCC(N)C(=O)O Some results are limits rather than exact numbers.

T1 sequence (P32245 whole entry): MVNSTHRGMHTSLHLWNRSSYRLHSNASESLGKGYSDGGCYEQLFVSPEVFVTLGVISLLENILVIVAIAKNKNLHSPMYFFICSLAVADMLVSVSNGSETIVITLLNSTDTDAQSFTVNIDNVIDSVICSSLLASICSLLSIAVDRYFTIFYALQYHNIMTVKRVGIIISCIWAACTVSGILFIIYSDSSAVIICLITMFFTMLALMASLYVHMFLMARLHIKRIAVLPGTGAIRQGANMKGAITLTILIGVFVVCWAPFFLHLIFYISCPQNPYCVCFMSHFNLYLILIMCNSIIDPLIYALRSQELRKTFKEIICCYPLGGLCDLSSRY

Consider `CCCCC(=O)N[C@H]1CC(=O)NCCCCC(C(N)=O)NC(=O)[C@H](Cc2c[nH]c3ccccc23)NC(=O)[C@H](C)NC(=O)[C@@H](Cc2ccccc2)NC(=O)[C@]2(CC[C@H](c3ccccc3)CC2)NC1=O` (stereo partly drawn) [Penta-cyclo(Asp-Lys)-Asp-Apc-(D)Phe-Ala-Trp-Lys-NH2] (Pentanoyl-D[Ac6c(4-Ph-cis-to-N)][dF]AW[ξK]-NH2; lactam 1-6), for which the half-maximal effective concentration (EC50) was < 500 nM.
